For the series, the system named is primary chondrocytes. The conditions noted are these: H2O2 between 25 and 100 μM.

The results in this text go back to patent US20240294697A1, “AMPHIPHILIC OLIGOMERS AND SELF-ASSEMBLING HYDROGELS FORMED THEREFROM” (THE GOVERNING COUNCIL OF THE UNIVERSITY OF TORONTO, priority 2021, published 2024).

Procedure: To prepare for this experiment, specific concentrations of H2O2 and ascorbic acid were prepared by testing a range of concentrations and incubating at 37° C. On the following day, 200 μL of each condition was treated to pre-seeded primary chondrocytes at passage 6 and evaluated for its metabolic activity as per below. Each condition was performed in triplicate.
Cryopreserved Human Chondrocytes (HCH) were purchased from PromoCell at passage 2 (P2). HCH were cultured in proprietary chondrocyte growth medium and supplemented with 10% Growth Medium Supplement by PromoCell at 37° C. and 5% CO2. The medium was changed every 2-3 days until the cells achieved 80% confluence. Once the cells reached confluence, the chondrocytes were treated with the DetachKit (purchased by PromoCell). […]
Following the 24-hour exposure of the leachable material and controls, the treated media was aspirated and 110 μL of a 10% solution (v/v) of WST-1 reagent in media was added to each well and incubated for two hours to ensure that all viable cells converted the tetrazolium salt to formazan. The absorbance of formazan was read on a Plate Reader (Perkin Elmer) at 450 nm. The absorbance values of all treatments and the positive control were normalized to cells treated with media.

On to `OO` [H2O2, hydrogen peroxide], for which the “concentrations evidencing cell toxicity” value is on record as “above 50 μM” and the “concentrations resulting in metabolically active cells” value is “below 50 μM”.
